# Assays:
# Assay in all cases: relative viability (nuclei count vs DMSO), 5 days (fraction); higher = more cells survive
# Mirin + Navitoclax = compound: N=C1NC(=O)/C(=C/c2ccc(O)cc2)S1 [Mirin] + CC1(C)CCC(c2ccc(Cl)cc2)=C(CN2CCN(c3ccc(C(=O)NS(=O)(=O)c4ccc(N[C@H](CCN5CCOCC5)CSc5ccccc5)c(S(=O)(=O)C(F)(F)F)c4)cc3)CC2)C1 [Navitoclax] (partner 0.5 µM)
# Method in brief: (§1)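 Lung cancer cell lines in 1536-well plates were dosed by pin tool the day after seeding, either with one drug alone or with a fixed anchor-drug dose plus five library-drug doses (not always all listed) in √10 steps. After 5 days, cells were fixed and their nuclei stained in one step (final 0.05% Triton X-100, 1% formaldehyde, 1 ug/ml Hoechst), then counted on 4× images. Relative viability is the nuclei count in treated wells divided by that in vehicle wells. Values are medians of duplicate plates.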
# Mirin + Alpelisib = compound: N=C1NC(=O)/C(=C/c2ccc(O)cc2)S1 [Mirin] + Cc1nc(NC(=O)N2CCC[C@H]2C(N)=O)sc1-c1ccnc(C(C)(C)C(F)(F)F)c1 [Alpelisib] (partner 2 µM)
# Method in brief: as §1
# [1] = compound: CCC1=CN=CN=C1N2CCN(CC2)CC3=NC4=C(N3)C=C(C=C4)C(F)(F)F + CC1(C)CCC(c2ccc(Cl)cc2)=C(CN2CCN(c3ccc(C(=O)NS(=O)(=O)c4ccc(N[C@H](CCN5CCOCC5)CSc5ccccc5)c(S(=O)(=O)C(F)(F)F)c4)cc3)CC2)C1 [Navitoclax] (partner 0.5 µM)
# Method in brief: as §1
# Mirin + Tozasertib = compound: N=C1NC(=O)/C(=C/c2ccc(O)cc2)S1 [Mirin] + Cc1cc(Nc2cc(N3CCN(C)CC3)nc(Sc3ccc(NC(=O)C4CC4)cc3)n2)n[nH]1 [Tozasertib] (partner 0.1 µM)
# Method in brief: as §1
Cell Line,relative viability (Mirin + Navitoclax; first compound 0.25 µM),relative viability (Mirin + Navitoclax; first compound 0.7906 µM),relative viability (Mirin + Navitoclax; first compound 2.5 µM),relative viability (Mirin + Navitoclax; first compound 7.906 µM),relative viability (Mirin + Navitoclax; first compound 25 µM),relative viability (Mirin + Alpelisib; first compound 0.25 µM),relative viability (Mirin + Alpelisib; first compound 0.7906 µM),relative viability (Mirin + Alpelisib; first compound 2.5 µM),relative viability (Mirin + Alpelisib; first compound 7.906 µM),relative viability (Mirin + Alpelisib; first compound 25 µM),relative viability ([1]; first compound 0.04 µM),relative viability ([1]; first compound 0.1265 µM),relative viability ([1]; first compound 0.4 µM),relative viability ([1]; first compound 1.265 µM),relative viability ([1]; first compound 4 µM),relative viability (Mirin + Tozasertib; first compound 0.25 µM),relative viability (Mirin + Tozasertib; first compound 0.7906 µM),relative viability (Mirin + Tozasertib; first compound 2.5 µM),relative viability (Mirin + Tozasertib; first compound 7.906 µM),relative viability (Mirin + Tozasertib; first compound 25 µM)
LXF-289,0.934,0.986,0.97,1.01,1.13,1.03,1.05,1.06,1.13,1.03,1.08,0.912,0.948,0.885,0.896,0.214,0.241,0.156,0.128,0.151
NCI-H23,0.941,–,0.783,0.682,0.71,0.655,–,0.723,0.642,0.442,0.845,0.903,0.783,0.749,1.04,0.496,–,0.427,0.288,0.256
NCI-H322M,1.26,1.28,1.25,1.22,1.31,0.783,0.844,0.734,0.829,0.844,1.26,1.1,1.13,1.29,1.2,0.509,0.524,0.569,0.447,0.401
NCI-H441,0.49,0.802,0.571,0.447,0.483,0.537,1.11,0.631,0.536,0.507,0.448,0.523,0.57,0.573,0.677,0.719,0.762,0.634,0.551,0.26
NCI-H460,1.18,1.27,1.19,1.06,0.913,0.511,0.424,0.559,0.515,0.236,1.25,1.01,1.01,1.09,1.11,0.386,0.393,0.402,0.229,0.221
NCI-H520,1.03,1.11,1.35,0.829,0.676,1.01,0.834,0.883,0.665,0.522,1.16,1.01,0.969,0.96,1.03,0.407,0.5,0.469,0.47,0.352
NCI-H596,0.966,0.855,0.96,1.15,0.962,0.438,0.45,0.481,0.513,0.361,1.01,0.899,0.933,0.944,1,1.05,0.953,0.972,1.13,0.866
NCI-H647,1.05,–,1.06,1.11,1.08,1.24,1.36,1.15,1.22,0.657,1.21,0.968,–,–,1.04,0.23,0.224,0.185,0.165,0.165
NCI-H727,0.518,0.473,0.393,0.728,0.454,0.699,0.7,0.692,0.761,0.54,0.487,0.501,0.357,–,0.35,0.705,0.629,0.661,0.543,0.553
NCI-H838,1.19,1.24,1.31,1.19,1.11,0.966,1,0.961,1.03,0.965,1.23,1.12,1.11,1.14,1.07,0.265,0.303,0.213,0.23,0.203
NCI-H1355,1,0.989,1.07,0.897,0.979,0.858,0.864,0.754,0.915,0.727,0.987,0.919,0.903,0.806,0.973,0.526,0.637,0.533,0.394,0.272
NCI-H1395,1.24,–,1.12,1.04,1.09,1.04,–,1.08,0.873,0.943,1.16,1.14,1.11,0.949,1.12,0.703,0.857,0.66,0.772,0.72
NCI-H1437,1.09,1.09,1.12,1.07,1.05,0.979,0.884,0.832,0.705,0.474,1.09,1,0.944,0.822,0.724,0.451,0.407,0.372,0.343,0.377
NCI-H1651,1.01,0.97,1.01,0.826,0.836,1.03,1.05,1.03,0.916,0.785,1.06,0.875,1.04,0.941,1.01,0.667,0.788,0.622,0.489,0.587
NCI-H1666,0.921,0.941,1.03,0.719,0.59,0.869,1.01,0.884,0.826,0.528,0.975,0.836,0.962,0.817,0.846,0.625,0.621,0.582,0.519,0.518
NCI-H1734,0.838,0.746,0.793,0.742,0.771,0.67,0.651,0.684,0.656,0.584,0.852,0.839,0.856,–,0.907,0.262,0.285,0.272,0.228,0.223

Cell Line,relative viability (Mirin + Navitoclax; first compound 0.25 µM),relative viability (Mirin + Navitoclax; first compound 0.7906 µM),relative viability (Mirin + Navitoclax; first compound 2.5 µM),relative viability (Mirin + Navitoclax; first compound 7.906 µM),relative viability (Mirin + Navitoclax; first compound 25 µM),relative viability (Mirin + Alpelisib; first compound 0.25 µM),relative viability (Mirin + Alpelisib; first compound 0.7906 µM),relative viability (Mirin + Alpelisib; first compound 2.5 µM),relative viability (Mirin + Alpelisib; first compound 7.906 µM),relative viability (Mirin + Alpelisib; first compound 25 µM),relative viability ([1]; first compound 0.04 µM),relative viability ([1]; first compound 0.1265 µM),relative viability ([1]; first compound 0.4 µM),relative viability ([1]; first compound 1.265 µM),relative viability ([1]; first compound 4 µM),relative viability (Mirin + Tozasertib; first compound 0.25 µM),relative viability (Mirin + Tozasertib; first compound 0.7906 µM),relative viability (Mirin + Tozasertib; first compound 2.5 µM),relative viability (Mirin + Tozasertib; first compound 7.906 µM),relative viability (Mirin + Tozasertib; first compound 25 µM)
NCI-H1755,1.03,1.11,1.03,1.09,1.14,0.926,0.947,0.976,0.947,0.876,1.01,0.947,0.955,0.606,0.889,0.682,0.587,0.655,0.462,0.606
NCI-H1793,0.55,0.36,0.395,0.656,0.371,0.724,0.747,0.775,0.764,0.482,0.381,0.447,0.363,–,0.435,0.341,–,0.619,0.283,0.178
NCI-H1915,0.775,–,0.76,0.743,0.866,1.04,–,1.09,0.948,1.08,0.819,0.735,0.847,0.722,0.809,0.44,–,0.413,0.35,0.289
NCI-H1944,1.03,–,1.07,1.08,0.861,0.834,–,0.813,0.718,0.52,0.97,0.948,1,–,0.916,0.245,0.231,0.253,0.192,0.174
NCI-H1975,1.05,1.07,1.11,1.14,0.994,0.626,0.631,0.618,0.714,0.572,1.15,1.08,1.06,0.879,0.931,0.697,0.84,0.799,0.664,0.585
NCI-H1993,1.03,1.02,0.913,0.932,0.749,0.663,0.779,0.681,0.65,0.674,1.16,0.934,0.792,0.817,0.778,0.611,–,0.605,0.52,0.576
NCI-H2009,1.17,1.3,1.18,1.11,1.2,1.1,1.27,1.19,1.12,1.13,1.19,1.16,1.09,1.1,1.09,0.707,0.785,0.725,0.614,0.556
NCI-H2023,0.991,0.963,1.01,0.995,0.972,0.588,0.594,0.616,0.616,0.555,0.987,0.941,0.962,1.03,1.12,0.343,0.354,0.38,0.27,0.188
NCI-H2085,0.978,1.17,1.25,1.12,1.09,0.908,1.07,0.97,0.843,0.674,1.11,1.02,1.21,1.18,0.911,0.8,0.826,0.678,0.749,0.546
NCI-H2087,1.01,1.21,0.944,1.27,1.03,1.07,1.06,1.13,1.24,1.08,1.03,0.982,0.914,0.871,0.723,0.26,0.248,0.292,0.22,0.19
NCI-H2126,0.811,0.81,0.819,0.852,0.85,0.758,0.724,0.784,0.679,0.688,0.818,0.818,0.839,0.794,0.867,0.85,0.834,0.92,0.832,0.474
NCI-H2170,0.698,0.51,0.659,0.521,0.375,0.792,0.83,0.909,0.714,0.699,0.561,0.69,0.534,0.608,0.608,0.709,0.747,0.713,0.652,0.504
NCI-H2228,1.2,0.972,1.35,1.18,1.03,0.711,0.906,0.681,1.05,0.636,0.996,0.847,0.979,0.888,0.747,0.267,0.197,0.235,0.203,0.176
NCI-H2347,0.8,0.784,0.812,0.825,0.893,1.02,1.12,1.05,1.08,1.16,0.711,0.733,0.783,0.665,0.729,0.58,0.457,0.681,0.587,0.439
NCI-H2405,0.812,0.97,0.742,0.641,0.73,0.762,0.774,0.781,0.727,0.622,0.86,0.937,0.834,–,0.997,0.71,0.778,0.775,0.67,0.61
NCI-H3122,1.01,1.1,1.01,1.09,1.15,0.715,0.823,0.729,0.923,0.821,1.02,0.996,0.997,0.987,1.03,0.368,0.337,0.355,0.382,0.305
